The text below walks through data of article PMC12308784, “Organometallic Half-Sandwich Complexes of 1,10-Phenanthroline Derivatives with Improved Solubility, Albumin-Binding, and Nanoformulation Potential Targeting Drug Resistance in Cancer” (Inorganic Chemistry, 2025).

Like-named read-outs stand apart in the source and are kept apart here. Marks after values point to notes of the source that are not given here.

In test [1] the test system is MES-SA/B1-mOrange. Put plainly: fluorescent triple coculture cytotoxicity assay. The test is classed as cell-based, human. As to conditions: 384-well plate; for SR (MES-SA/B1): selectivity ratio versus parental MES-SA. From the text:
(§1) Cytotoxicity of the compounds were further tested also in an in vitro MDR model system, consisting of an MES-SA uterine sarcoma cell line, and its P-gp (ABCB1) overexpressing variants MES-SA/B1, that was genetically engineered to express P-gp, and MES-SA/Dx5, which acquired a P-gp-mediated MDR phenotype due to selection in doxorubicin. , The expression of different fluorescent proteins in each line (mCherry, mOrange, or eGFP) allowed coculturing of these three cell lines, providing more relevant data compared to monocultures, as the interaction between parental and resistant phenotypes is reflected in cytotoxicity.
(§2) Cytotoxicity of nanoformulated [RhCp*(BP)-Cl]-Cl with cross-linked HSA and HTP carriers was tested against the previously introduced triple coculture of fluorescent MES-SA cells with a slight difference. Namely, the media containing the dissolved products were removed from the wells, and fresh media was added prior to the measurement as the presence of cross-linked HSA and HTP formulations interfered with the fluorescence of the cells.
(§3) MDA-MB-231 breast adenocarcinoma and MCF-7 and T-47D invasive breast carcinomas were purchased from the Developmental Therapeutic Program of the National Cancer Institute (NIH, USA), and they were cultured in RPMI medium (Thermo Fisher). MES–SA and MES–SA/Dx5 uterine sarcoma cell lines were purchased from American Type Culture Collection and were kept in DMEM (Thermo Fisher). MES–SA/B1 was created by the transfection of the human MDR1 gene in MES–SA, and MES–SA mCherry, MES–SA/B1 mOrange, and MES–SA/Dx5 eGFP were engineered to stably express the respective fluorescent proteins, as described previously. Culture media were supplemented with 10% fetal bovine serum, 2 mM L-glutamine, 100 units/mL penicillin, and 100 μg/mL streptomycin (Thermo Fisher). Cells were kept at 37 °C under 5% CO2 and were negative for mycoplasma infection.
(§4) Cytotoxicity of the nonfluorescent cancer cells (MDA-MB-231, MCF-7, T-47D) were assessed with PrestoBlue cell viability reagent (Thermo Fisher). Briefly, 2500 cells/well were seeded on 384-well plates, and then the next day drugs were added. After 72 h incubation, PrestoBlue was added in a 10% final concentration, and after an hour of additional incubation, plates were measured with a PerkinElmer EnSpire plate reader at 555 nm/585 nm excitation/emission wavelengths. […] Drugs were added the following day, and the intensity of the fluorescent proteins were measured after 144 h incubation at the respective fluorescent channels (excitation/emission: eGFP: 485 nm/510 nm; mCherry: 585 nm/610 nm; mOrange: 545 nm/567 nm). pIC50 values were calculated by a custom program written by Judit Sessler in C#. IC50 values and standard deviation were calculated from average pIC50 values from at least 3 independent measurements. Since the IC50 values were obtained through nonlinear regression fitting of the viability vs. log(concentration) data, the resulting confidence intervals are inherently asymmetric (see pIC50 values and their corresponding SD in Tables S5 and S6).

The subject of test [2] is MES-SA/Dx5-eGFP. The test can be described thus: fluorescent triple coculture cytotoxicity assay. The test is classed as cell-based, human. The settings on record: 384-well plate; for SR (MES-SA/Dx5): selectivity ratio versus parental MES-SA.
Source text: as §1, §2, §3, §4

The test system of test [3] is MES-SA mCherry. The test can be described thus: fluorescent triple coculture cytotoxicity assay. The settings on record: 384-well plate. The test is classed as cell-based, human.
Source text: as §1, §2, §3, §4

Test [4] concerns T47D. The test can be described thus: PrestoBlue cytotoxicity assay. The test is classed as cell-based. The method, then: as §3
(§5) Cytotoxicity of the nonfluorescent cancer cells (MDA-MB-231, MCF-7, T-47D) were assessed with PrestoBlue cell viability reagent (Thermo Fisher). Briefly, 2500 cells/well were seeded on 384-well plates, and then the next day drugs were added. After 72 h incubation, PrestoBlue was added in a 10% final concentration, and after an hour of additional incubation, plates were measured with a PerkinElmer EnSpire plate reader at 555 nm/585 nm excitation/emission wavelengths. Fluorescent cells (MES-SA mCherry, MES-SA/B1 mOrange, MES-SA/Dx5 eGFP) were admixed before seeding on 384-well plates at 800 cells/well density each, thus altogether 2400 cells/well. Drugs were added the following day, and the intensity of the fluorescent proteins were measured after 144 h incubation at the respective fluorescent channels (excitation/emission: eGFP: 485 nm/510 nm; mCherry: 585 nm/610 nm; mOrange: 545 nm/567 nm). pIC50 values were calculated by a custom program written by Judit Sessler in C#. IC50 values and standard deviation were calculated from average pIC50 values from at least 3 independent measurements. Since the IC50 values were obtained through nonlinear regression fitting of the viability vs. log(concentration) data, the resulting confidence intervals are inherently asymmetric (see pIC50 values and their corresponding SD in Tables S5 and S6).

Test [5] relates to MCF-7. The test can be described thus: PrestoBlue cytotoxicity assay. It counts as cell-based. The method, then: as §3, §5
Test [6] relates to MDA-MB-231. The test can be described thus: PrestoBlue cytotoxicity assay. It counts as cell-based. The method, then: as §3, §5
Test [7] has as its system MDA-MB-231, MCF-7 and T-47D breast cancer cell lines. The test can be described thus: PrestoBlue cytotoxicity, range over the three breast cancer lines. The test is classed as cell-based. The settings on record: MDA-MB-231, MCF-7, T-47D; 72 h. The method, then: The PHEN-derived ligands (DCP, BP) (together with PHEN for comparison) and the isolated complexes ([RuCym(DCP)-Cl]-Cl, [RhCp*(DCP)-Cl]-Cl, [RuCym(BP)-Cl]-Cl, [RhCp*(BP)-Cl]-Cl) were tested against the estrogen receptor (ER) negative MDA-MB-231, and the ER positive MCF-7 and T-47D breast cancer cell lines (Table , and Figure a for easier comparison).
as §3
as §5, with “measurements.” for “measurements. Since the IC50 values were obtained through nonlinear regression fitting of the viability vs. log(concentration) data, the resulting confidence intervals are inherently asymmetric (see pIC50 values and their corresponding SD in Tables S5 and S6).”

For test [8], the target named is T1, human serum albumin (HSA), Trp-214 in Sudlow’s site I (Homo sapiens, UniProt P02768).
T1 construct: purchased Sigma-Aldrich A8763
The settings on record: cited from earlier work; for logK Q′ (quenching constant): organometallic precursors, PBS’, t = 25 °C.

The target in test [9] is T2, HSA Sudlow’s site I (IIA subdomain) (Homo sapiens, UniProt P02768).
T2 construct: purchased Sigma-Aldrich A8763
The settings on record: organometallic precursors; PBS’; t = 25 °C; ref footnote a (ref 56); cited from earlier work.

Where [10] appears, read: Homo sapiens, MES-SA/B1-mOrange, coculture, 144 h, read-out: IC50.
Where [11] appears, read: Homo sapiens, Mes-Sa/B1 mOrange, Table S6, read-out: pIC50 (mean) (converted).
Setting [12] is: Homo sapiens, MES-SA/Dx5-eGFP, coculture, 144 h, read-out: IC50.
[13] abbreviates: Homo sapiens, Mes-Sa/Dx5 eGFP, Table S6, read-out: pIC50 (mean) (converted).
[14] abbreviates: Homo sapiens, MES-SA, 144 h, MES-SA mCherry, coculture, 144 h, read-out: IC50.
[15] abbreviates: Homo sapiens, MES-SA, Mes-Sa mCherry, Table S6, read-out: pIC50 (mean) (converted).
[16] abbreviates: MES-SA mCherry, coculture, 144 h, read-out: IC50.
[17] abbreviates: Homo sapiens, 72 h, 384-well plate, read-out: IC50.
Setting [18] is: Homo sapiens, Table S5, read-out: pIC50 (mean) (converted).
The mark [19] stands for this setting: 72 h, 384-well plate, read-out: IC50.

T1 sequence (P02768 25-609): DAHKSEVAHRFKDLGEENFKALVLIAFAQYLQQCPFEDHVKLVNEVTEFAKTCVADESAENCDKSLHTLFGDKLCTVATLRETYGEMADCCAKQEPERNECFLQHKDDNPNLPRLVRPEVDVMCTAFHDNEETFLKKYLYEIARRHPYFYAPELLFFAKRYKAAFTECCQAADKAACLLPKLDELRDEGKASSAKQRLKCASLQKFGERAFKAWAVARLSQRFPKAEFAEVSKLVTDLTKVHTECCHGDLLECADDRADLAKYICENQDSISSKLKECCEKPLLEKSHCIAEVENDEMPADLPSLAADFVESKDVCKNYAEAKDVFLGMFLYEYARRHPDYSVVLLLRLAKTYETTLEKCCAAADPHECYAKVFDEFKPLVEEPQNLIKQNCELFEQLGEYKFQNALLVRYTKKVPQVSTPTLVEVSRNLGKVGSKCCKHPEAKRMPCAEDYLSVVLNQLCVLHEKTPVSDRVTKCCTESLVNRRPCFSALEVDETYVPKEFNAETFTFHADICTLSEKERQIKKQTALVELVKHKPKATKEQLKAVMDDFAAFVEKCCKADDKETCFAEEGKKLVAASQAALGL
T2 sequence (P02768 25-609): as above

`c1cnc2c(c1)ccc1cccnc12` [PHEN, 1,10-phenanthroline]: the IC50 in test [1] (setting [10]) was 1390 nM; in test [1] (setting [11]), 1380 nM; in [2] (setting [12]), 410 nM; in [2] (setting [13]), 417 nM; in test [3] (setting [14]), 3000 nM; in [3] (setting [15]), 2950 nM. The IC50 was 2950 nM in test [3] (setting [16]); 5470 nM in [4] (setting [17]); 5500 nM in test [4] (setting [18]); 8570 nM in test [5] (Homo sapiens, MCF7, 72 h, 384-well plate, read-out: IC50); 8510 nM in [5] (Homo sapiens, MCF7, Table S5, read-out: pIC50 (mean) (converted)); 3200 nM in test [6] (setting [17]). The IC50 is 3160 nM in test [6] (setting [18]) and 3200 to 8600 nM in [7]. The “SR (MES-SA/B1)” value in test [1] turned out to be 2.1. Moreover, the “SR (MES-SA/Dx5)” value in [2] stood at 7.1.
Turning to `[Ru].c1cnc2c(c1)ccc1cccnc12.c1cnc2c(c1)ccc1cccnc12.c1cnc2c(c1)ccc1cccnc12` [[Ru(PHEN)3]^2+], the “interaction with HSA” value in test [8] (ref number not given) was “negligible interaction”.
With `N.N.[Cl][Pt][Cl]` [cisplatin], the IC50 came out at 1710 nM in [1] (MES-SA/B1-mOrange, coculture, 144 h, read-out: IC50); 4280 nM in [2] (MES-SA/Dx5-eGFP, coculture, 144 h, read-out: IC50); 1490 nM in test [3] (setting [16]); 6980 nM in test [4] (setting [19]); 4780 nM in [5] (setting [19]); 3160 nM in test [6] (setting [19]). Moreover, in [7], the IC50 is 3200 to 7000 nM. In addition, the “pIC50 (mean)” value is recorded as 5.77 in [1] (Mes-Sa/B1 mOrange, Table S6); 5.37 in [2] (Mes-Sa/Dx5 eGFP, Table S6); 5.83 in test [3] (Mes-Sa mCherry, Table S6); 5.16 in test [4] (Table S5); 5.32 in [5] (Table S5); 5.50 in test [6] (Table S5). The “SR (MES-SA/B1)” value in [1] came out at 0.9. Also, the “SR (MES-SA/Dx5)” value in [2] turned out to be 0.3.
With `COc1cc([C@@H]2c3cc4c(cc3[C@@H](O[C@@H]3O[C@@H]5CO[C@@H](C)O[C@H]5[C@H](O)[C@H]3O)[C@H]3COC(=O)[C@H]23)OCO4)cc(OC)c1O` [etoposide], the IC50 in test [1] (setting [10]) was 1190 nM; in test [1] (setting [11]) it was 1170 nM; in test [2] (setting [12]), 2080 nM; in test [2] (setting [13]), 2090 nM; in test [3] (setting [14]), 200 nM; in test [3] (setting [15]), 200 nM. Further, the “resistance of MES-SA/B1 versus parental line” value in test [1] (coculture) is on record as 6 fold. Moreover, the “SR (MES-SA/B1)” value in [1] was found to be 0.2. The “resistance of MES-SA/Dx5 versus parental line” value in test [2] (coculture) came to 10 fold. Moreover, the “SR (MES-SA/Dx5)” value in [2] was 0.1.
For [Rh(η^5-C5Me5)Cl2]2 [RhCp*precursor], the “logK Q′ (quenching constant)” value is 5.8 ^a in [8] and 5.8 in test [8] (listed as precursor RhCp*). In addition, the “logK WF′ (WF displacement constant)” value in [9] was 6.1 ^a.
On to “[Ru(η^6-p-cymene)Cl2]2 [RuCym precursor]”, for which the “logK Q′ (quenching constant)” value in [8] is recorded as 5.7 ^a. The “logK WF′ (WF displacement constant)” value in [9] was 5.9 ^a.
